MIC data for 3 compounds are collected here from patent US4482553A, “Benzothienylglycyl cephalosporin derivatives” (priority 1983, dated 1984).

Values after ≈ are worked out from the molar mass of the structure shown. Like-named read-outs stand apart in the source and are kept apart here.

Broadly, the MIC is the lowest concentration found to suppress growth.

Common to all, as to assay type: cell-based
The subject of test [1] is Staph. epi. The test can be described thus: standard in vitro agar dilution MIC (Table I), Staph. epi. (In general: In agar dilution the substance is mixed into plates at graded concentrations.)
Another test has as its system Klebsiella. The test can be described thus: standard in vitro agar dilution MIC (Table I), Klebsiella. Conditions: Klebsiella, Table I, agar dilution, read-out: MIC.
Test [2] has as its system H. influ. The test can be described thus: standard in vitro agar dilution MIC (Table I), H. influ. The text has this:
(§1) The antibacterial activity of several compounds of the invention has been determined in standard in vitro agar dilution assays against a variety of gram positive and gram negative microorganisms. The following Tables present typical minimum inhibitory concentrations (MIC's) in μg/ml for several compounds of the invention when evaluated against the indicated microorganisms. MIC's for several known compounds are also presented for comparison.

The test system of a further test is E. coli. The test is described as follows: standard in vitro agar dilution MIC (Table I), E. coli. Conditions: Escherichia coli.
The subject of test [3] is Staph. aureus. The test is described as follows: standard in vitro agar dilution MIC (Table I), Staph. aureus. Conditions: Staphylococcus aureus.
A further test relates to Strep. D. The test is described as follows: standard in vitro agar dilution MIC (Table I), Strep. D.
In the next test the test system is Strep. A. The test can be described thus: standard in vitro agar dilution MIC (Table I), Strep. A.
A further test relates to Strep. PN. The test can be described thus: standard in vitro agar dilution MIC (Table I), Strep. PN. Conditions: strain PARK, read-out: MIC.
In test [4] the test system is Staph. epi. The test is described as follows: Expanded Spectrum MIC (Table II), Staph. epi.
Description: as §1

For test [5], the system named is H. influ. The test can be described thus: Expanded Spectrum MIC (Table II), H. influ.
Description: as §1

Test [6] concerns Staph. aureus. The test is described as follows: Expanded Spectrum MIC (Table II), Staph. aureus. Conditions: Staphylococcus aureus.
Description: as §1

Where [7] appears, read: Table I, agar dilution, strain EPI1, read-out: MIC.

For the compound `CC1(C)S[C@@H]2[C@H](NC(=O)[C@H](N)c3ccccc3)C(=O)N2[C@H]1C(=O)O` [Ampicillin, reference compound], the minimal inhibitory concentration (MIC) in the test on Staph. epi [1] (setting [7]) is 8 µg/mL (≈ 22.9 µM); in the test with Klebsiella (strain X26), 16 µg/mL (≈ 45.8 µM); with Klebsiella (strain X68), 16 µg/mL (≈ 45.8 µM); against H. influ. [2] (strain 76), 16 µg/mL (≈ 45.8 µM); against H. influ. [2] (strain C.L.), 0.5 µg/mL (≈ 1.43 µM); in the test with E. coli (strain EC14), 4 µg/mL (≈ 11.4 µM). For the same compound, the MIC was found to be 8 µg/mL (≈ 22.9 µM) with E. coli (strain N10); 64 µg/mL (≈ 183 µM) with Staph. aureus [3] (strain S13E); 2 µg/mL (≈ 5.72 µM) with Strep. D (strain 2041, read-out: MIC); 4 µg/mL (≈ 11.4 µM) in the test on Strep. D (strain X66, read-out: MIC).
Turning to `CC1=C(C(=O)O)N2C(=O)[C@@H](NC(=O)[C@H](N)c3ccccc3)[C@H]2SC1` [Cephalexin, reference compound], the MIC against Strep. A is 0.5 µg/mL (≈ 1.44 µM); in the test with Staph. epi [1], 8 µg/mL (≈ 23 µM); in the test on Staph. epi [1] (setting [7]) it was 32 µg/mL (≈ 92.1 µM); in the test with Klebsiella (strain X26), 4 µg/mL (≈ 11.5 µM); in the test with Klebsiella (strain X68), 8 µg/mL (≈ 23 µM); with Strep. PN, 2 µg/mL (≈ 5.76 µM). Moreover, the minimum inhibitory concentration (MIC) against H. influ. [2] (strain 76) and against H. influ. [2] (strain C.L.) was 8 µg/mL (≈ 23 µM) in each case.
On to `CC1=C(C(=O)O)N2C(=O)C(NC(=O)[C@H](N)c3cc4cc(Cl)ccc4s3)C2SC1` (stereo partly drawn) [Ex. 2, D-7-(5-Chloro-2-benzothienyl)glycylamido-3-methyl-3-cephem-4-carboxylic acid], for which the minimal inhibitory concentration (MIC) with Strep. A (Table I, agar dilution, strain C203, read-out: MIC) came to 0.125 µg/mL (≈ 0.285 µM); in the test with Staph. epi [1] (Table I, agar dilution, strain 222, read-out: MIC) it was 1 µg/mL (≈ 2.28 µM); with Staph. epi [1] (setting [7]), 4 µg/mL (≈ 9.13 µM); in the test on Staph. epi [4] (strain 219, read-out: MIC), 0.25 µg/mL (≈ 0.571 µM); in the test with Staph. epi [4] (strain 269, read-out: MIC), 1 µg/mL (≈ 2.28 µM); with Staph. epi [4] (strain 270, read-out: MIC), 1 µg/mL (≈ 2.28 µM). Besides, the MIC turned out to be 0.5 µg/mL (≈ 1.14 µM) in the test with Staph. epi [4] (strain 285, read-out: MIC); 0.25 µg/mL (≈ 0.571 µM) with Staph. epi [4] (strain 286, read-out: MIC); 4 µg/mL (≈ 9.13 µM) in the test with Staph. epi [4] (strain EPI1, read-out: MIC); 32 µg/mL (≈ 73.1 µM) with Klebsiella (strain X26); 8 µg/mL (≈ 18.3 µM) in the test with H. influ. [5] (strain 76, read-out: MIC); 1 µg/mL (≈ 2.28 µM) in the test with H. influ. [5] (strain 1683, read-out: MIC). Further, the MIC is 32 µg/mL (≈ 73.1 µM) in the test with H. influ. [5] (strain C.L., read-out: MIC); greater than 64 µg/mL in the test on H. influ. [5] (strain M366); greater than 64 µg/mL in the test on H. influ. [5] (strain STEL); 0.5 µg/mL (≈ 1.14 µM) with Strep. PN; 0.5 µg/mL (≈ 1.14 µM) in the test on H. influ. [2] (strain 76, read-out: MIC); 2 µg/mL (≈ 4.57 µM) with H. influ. [2] (strain C.L., read-out: MIC). Further, the MIC in the test with Staph. aureus [3] (strain V41, read-out: MIC) is 32 µg/mL (≈ 73.1 µM); in the test with Staph. aureus [3] (strain X1.1, read-out: MIC), 0.5 µg/mL (≈ 1.14 µM); with Staph. aureus [3] (strain X400, read-out: MIC), 64 µg/mL (≈ 146 µM); in the test on Staph. aureus [6] (strain 239, read-out: MIC), 0.5 µg/mL (≈ 1.14 µM); with Staph. aureus [6] (strain S224, read-out: MIC) it was 0.25 µg/mL (≈ 0.571 µM); with Staph. aureus [6] (strain S225, read-out: MIC) it was 0.25 µg/mL (≈ 0.571 µM). For the same compound, the minimal inhibitory concentration (MIC) came to 0.5 µg/mL (≈ 1.14 µM) with Staph. aureus [6] (strain S226, read-out: MIC); 0.25 µg/mL (≈ 0.571 µM) in the test on Staph. aureus [6] (strain S227, read-out: MIC); 0.25 µg/mL (≈ 0.571 µM) in the test on Staph. aureus [6] (strain S228, read-out: MIC); 0.5 µg/mL (≈ 1.14 µM) with Staph. aureus [6] (strain S229, read-out: MIC); 0.25 µg/mL (≈ 0.571 µM) in the test with Staph. aureus [6] (strain S230, read-out: MIC); 0.25 µg/mL (≈ 0.571 µM) in the test with Staph. aureus [6] (strain S231, read-out: MIC). Further, the minimal inhibitory concentration (MIC) came to 0.5 µg/mL (≈ 1.14 µM) with Staph. aureus [6] (strain S234, read-out: MIC); 0.5 µg/mL (≈ 1.14 µM) in the test with Staph. aureus [6] (strain S237, read-out: MIC); 1 µg/mL (≈ 2.28 µM) in the test with Staph. aureus [6] (strain S238, read-out: MIC).
